From publication PMC9837035 (Nature Communications, 2023)
pIC50: −log10 of the molar value. “And” between values parts separate entries of the source, which are not always exact repeats. Identical values can stand only once.

Tests used:
[1] = system: BCL11A and ZBTB7A in HUDEP-2 cells; assay: RT-qPCR of BCL11A and ZBTB7A in HUDEP-2 cells; assay type: cell-based, human; conditions: for expression of BCL11A and ZBTB7A: HUDEP-2
Protocol: Total cellular RNA was prepared using the Tissue Total RNA Mini Kit (FAVORGEN), and cDNA was synthesized using ReverTra Ace Master Mix (TOYOBO). Expression of target genes was analyzed using THUNDERBIRD SYBR qPCR Mix (TOYOBO) on a CFX Connect Real Time System (Bio-Rad). The qPCR data were acquired on CFX Maestro (Bio-Rad). Primers are listed in Supplementary Table 10. GAPDH was used as a reference. Primers were purchased from INTEGRATED DNA TECHNOLOGIES or FASMAC.

SMYD2 = biological target: T1, SMYD2 (Homo sapiens, UniProt Q9NRG4); assay: Radioisotope-based methyltransferase assay (selectivity); assay type: biochemical
T1 construct: purchased Reaction Biology

G9a = biological target: T2, G9a (Homo sapiens, UniProt Q96KQ7); assay: In vitro G9a methyltransferase assay (AlphaLISA-based); assay type: biochemical; design: purchased BPS Bioscience
T2 sequence (Q96KQ7 1-1210): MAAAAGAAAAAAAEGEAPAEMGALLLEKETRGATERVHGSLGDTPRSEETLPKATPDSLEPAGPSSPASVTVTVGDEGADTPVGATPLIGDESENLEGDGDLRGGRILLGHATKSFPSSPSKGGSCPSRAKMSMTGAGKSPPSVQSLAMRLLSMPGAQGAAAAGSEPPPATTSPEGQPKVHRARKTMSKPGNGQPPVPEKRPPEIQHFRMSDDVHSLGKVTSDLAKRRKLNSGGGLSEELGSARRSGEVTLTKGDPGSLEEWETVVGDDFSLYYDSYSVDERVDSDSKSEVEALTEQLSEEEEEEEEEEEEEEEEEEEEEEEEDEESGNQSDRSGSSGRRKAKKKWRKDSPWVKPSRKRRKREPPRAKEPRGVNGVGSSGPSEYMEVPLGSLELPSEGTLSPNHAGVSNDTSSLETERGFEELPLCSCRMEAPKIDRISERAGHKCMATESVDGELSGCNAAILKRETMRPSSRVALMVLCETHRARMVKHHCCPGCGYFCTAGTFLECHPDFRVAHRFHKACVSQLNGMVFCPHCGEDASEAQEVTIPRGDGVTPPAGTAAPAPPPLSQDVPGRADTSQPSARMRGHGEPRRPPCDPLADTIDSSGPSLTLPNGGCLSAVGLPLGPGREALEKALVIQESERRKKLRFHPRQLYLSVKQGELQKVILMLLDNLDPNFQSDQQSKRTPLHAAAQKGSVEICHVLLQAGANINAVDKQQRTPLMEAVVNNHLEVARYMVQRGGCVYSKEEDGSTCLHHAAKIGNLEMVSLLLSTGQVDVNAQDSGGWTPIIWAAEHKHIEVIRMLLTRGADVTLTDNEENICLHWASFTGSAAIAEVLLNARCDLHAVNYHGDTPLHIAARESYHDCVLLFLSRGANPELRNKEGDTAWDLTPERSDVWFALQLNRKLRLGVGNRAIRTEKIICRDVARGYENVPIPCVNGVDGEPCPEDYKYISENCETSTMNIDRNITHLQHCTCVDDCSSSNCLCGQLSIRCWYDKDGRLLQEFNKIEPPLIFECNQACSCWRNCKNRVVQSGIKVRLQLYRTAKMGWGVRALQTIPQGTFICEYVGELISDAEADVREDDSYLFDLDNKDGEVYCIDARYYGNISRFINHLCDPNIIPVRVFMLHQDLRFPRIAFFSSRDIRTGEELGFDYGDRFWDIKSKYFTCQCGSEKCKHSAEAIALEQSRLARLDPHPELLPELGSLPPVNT
Protocol: An amplified luminescence proximity homogeneous assay (ALPHA) was performed with a modified version of a previously described method. Recombinant G9a proteins (BPS Bioscience) were incubated with 15 μM S-adenosyl-methionine (Sigma) and 50 nM biotinylated histone H3 (1-21; AnaSpec) in the assay buffer (50 mM Tris-HCl (pH 9.0), 50 mM NaCl, 0.01% Tween-20, and 1 mM DTT). After incubation at room temperature for 1 h, AlphaLISA anti-H3K9me2 acceptor beads (final concentration 10 μg/mL, PerkinElmer, AL117C) and AlphaScreen streptavidin donor beads (final concentration 10 μg/mL, PerkinElmer, 6760002B) were added and incubated for an additional 1 h prior to detection of the alpha signal with an EnSpire Alpha plate reader (PerkinElmer). ALPHA profile was analyzed using Origin (OriginLab).

[2] = 50 μM, relative to DMSO = 1, replicate values
[3] = 100 μM, relative to DMSO = 1, replicate values
[4] = 200 μM, relative to DMSO = 1, replicate values
[5] = 0.01 μM, relative to DMSO = 1, replicate values
[6] = G9a activity, 0.016 μM, single experiment
[7] = G9a activity, 0.08 μM, single experiment
[8] = G9a activity, 0.4 μM, single experiment
[9] = G9a activity, 2 μM, single experiment
[10] = G9a activity, single experiment
[11] = G9a activity, 10 μM, single experiment
[12] = G9a activity, 50 μM, single experiment

T1 sequence (Q9NRG4 whole entry): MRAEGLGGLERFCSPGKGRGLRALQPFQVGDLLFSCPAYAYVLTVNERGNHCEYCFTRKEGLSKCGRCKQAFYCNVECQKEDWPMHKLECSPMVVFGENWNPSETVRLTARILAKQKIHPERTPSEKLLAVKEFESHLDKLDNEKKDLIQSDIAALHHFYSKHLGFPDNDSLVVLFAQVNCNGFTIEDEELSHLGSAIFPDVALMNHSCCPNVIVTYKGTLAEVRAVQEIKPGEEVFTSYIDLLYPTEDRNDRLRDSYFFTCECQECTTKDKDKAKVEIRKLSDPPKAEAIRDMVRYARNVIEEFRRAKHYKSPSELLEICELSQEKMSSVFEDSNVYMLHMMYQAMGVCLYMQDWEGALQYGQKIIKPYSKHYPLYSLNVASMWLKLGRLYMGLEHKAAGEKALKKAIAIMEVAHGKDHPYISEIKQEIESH

## NC(=O)NO [Hydroxyurea, hydroxyurea]
[1]; [2]
  BCL11A expression in HUDEP-2 cells treated with hydroxyurea: 1.149 and 0.8339 and 1.127
  ZBTB7A expression in HUDEP-2 cells treated with hydroxyurea: 1.5773 and 1.182 and 1.627
[1]; [3]
  BCL11A expression in HUDEP-2 cells treated with hydroxyurea: 1.406 and 0.8316 and 1.105
  ZBTB7A expression in HUDEP-2 cells treated with hydroxyurea: 3.378 and 1.925 and 2.126
[1]; [4]
  BCL11A expression in HUDEP-2 cells treated with hydroxyurea: 0.9537 and 0.8461 and 1.024
  ZBTB7A expression in HUDEP-2 cells treated with hydroxyurea: 5.802 and 2.404 and 2.049
[1]
  expression of BCL11A and ZBTB7A: did not significantly affect

## Cc1c(C(=O)NC(CCC2CC2)C(=O)Nc2ccc(C#N)cc2)[nH]c2c1C(=O)CC(C)(C)C2 (stereo not drawn) [RK-701]
SMYD2; SMYD2, 1 μM SAM
  pIC50: < 4.00
SMYD2; SMYD2, RK-701 in duplicate
  pIC50: < 4.00
[1]; [5]
  BCL11A expression in HUDEP-2 cells: 0.7709 and 1.287 and 1.333
  ZBTB7A expression in HUDEP-2 cells: 0.7642 and 1.54 and 1.588
[1]
  expression of BCL11A and ZBTB7A: did not significantly affect
G9a; G9a
  pIC50: 7.57 to 7.64 and 7.57
G9a; G9a activity, 0.00064 μM, single experiment
  Inhibition %: 6.475% and 0%
G9a; [6]
  Inhibition %: 30.3347% and 30.0776%
  inhibition at 0.016 µM: 35.6%
G9a; [7]
  Inhibition %: 81.1273% and 81.8822%
  inhibition at 0.08 µM: 82.3%
G9a; [8]
  Inhibition %: 98.9416% and 99.213%
  inhibition at 0.4 µM: 99.3%
G9a; [9]
  Inhibition %: 99.979% and 99.9697%
  inhibition at 2 µM: 100%
G9a; [10]
  pIC50: 7.61 and 7.54 and 7.55

## Cc1c(C(=O)N[C@H](CCC2CC2)C(=O)Nc2ccc(C#N)cc2)[nH]c2c1C(=O)CC(C)(C)C2 [RK-0133114]
G9a; G9a
  pIC50: 5.43
G9a; G9a activity, 0.0032 μM, single experiment
  Inhibition %: 9.4545% and 6.383% and 0%
G9a; [6]
  Inhibition %: 4.31% and 2.981% and 0%
G9a; [7]
  Inhibition %: 0% and 8.43%
G9a; [9]
  Inhibition %: 32.9012% and 25.4405%
  inhibition at 2 µM: 42.7%
G9a; [11]
  Inhibition %: 77.5611% and 74.8715%
  inhibition at 10 µM: 74.3%
G9a; [12]
  Inhibition %: 96.0953% and 94.6907%
  inhibition at 50 µM: 97.9%
G9a; [10]
  pIC50: 5.52 and 5.44 and 5.35

## Nc1ncnc2c1ncn2[C@@H]1O[C@H](CSCC[C@H](N)C(=O)O)[C@@H](O)[C@H]1O [SAH, S-(5'-Adenosyl)-L-homocysteine, reference compound]
SMYD2; SMYD2, 1 μM SAM
  pIC50: 5.72
SMYD2; SMYD2, RK-701 in duplicate
  pIC50: 5.72
